Assay results from patent publication EP0090204A1, “Optically active levorotatory derivatives of phenoxy-benzoic acid, method for their preparation and their use as herbicides” (BAYER AG, priority 1982, dated 1983).

Columns and labels:
Type in all cases: in vivo
[1] = tested on: Monocotyledoneae; test: Pre-emergence test; conditions: % damage vs untreated control after three weeks, average effect on several monocots
Excerpt: (§1) Zur Herstellung einer zweckmäßigen Wirkstoffzubereitung vermischt man 1 Gewichtsteil Wirkstoff mit der angegebenen Menge Lösungsmittel, gibt die angegebene Menge Emulgator zu und verdünnt das Konzentrat mit Wasser auf die gewünschte Konzentration.
(§2) Samen der Testpflanzen werden in normalen Boden ausgesät und nach 24 Stunden mit der Wirkstoffzubereitung begossen. Dabei hält man die Wassermenge pro Flächeneinheit zweckmäßigerweise konstant. Die Wirkstoffkonzentration in der Zubereitung spielt keine Rolle, entscheidend ist nur die Aufwandmenge des Wirkstoffs pro Flächeneinheit. Nach drei Wochen wird der Schädigungsgrad der Pflanzen bonitiert in % Schädigung im Vergleich zur Entwicklung der unbehandelten Kontrolle.

[2] = tested on: Mais; test: Pre-emergence test; conditions: % damage vs untreated control after three weeks
Excerpt: as §1, §2

[3] = tested on: Dicotyledoneae; test: Pre-emergence test; conditions: % damage vs untreated control after three weeks, average effect on several dicots
Excerpt: as §1, §2

[4] = tested on: Soja; test: Pre-emergence test; conditions: % damage vs untreated control after three weeks
Excerpt: as §1, §2

[5] = tested on: Rüben; test: Pre-emergence test; conditions: % damage vs untreated control after three weeks
Excerpt: as §1, §2

[6] = tested on: Testpflanzen; test: Post-emergence test, overall comparison; conditions: compared with the corresponding racemic compounds (A) and (B)
Excerpt: as §1
(§3) Mit der Wirkstoffzubereitung spritzt man Testpflanzen, welche eine Höhe von 5 - 15 cm haben so, daß die jeweils gewünschten Wirkstoffmengen pro Flächeneinheit ausgebracht werden. Die Konzentration der Spritzbrühe wird so gewählt, daß in 2000 1 Wasser/ha die jeweils gewünschten Wirkstoffmengen ausgebracht werden. Nach drei Wochen wird der Schädigungsgrad der Pflanzen bonitiert in % Schädigung im Vergleich zur Entwicklung der unbehandelten Kontrolle.

[7] = tested on: Testpflanzen; test: Pre-emergence test, overall comparison; conditions: compared with the corresponding racemic compounds (A) and (B)
Excerpt: as §1, §2

[8] = tested on: Monocotyledoneae; test: Post-emergence test; conditions: % damage vs untreated control after three weeks, average effect on several monocots
Excerpt: as §1, §3

[9] = tested on: Mais; test: Post-emergence test; conditions: % damage vs untreated control after three weeks
Excerpt: as §1, §3

[10] = tested on: Dicotyledoneae; test: Post-emergence test; conditions: % damage vs untreated control after three weeks, average effect on several dicots
Excerpt: as §1, §3

[11] = tested on: Soja; test: Post-emergence test; conditions: % damage vs untreated control after three weeks
Excerpt: as §1, §3

[12] = tested on: Rüben; test: Post-emergence test; conditions: % damage vs untreated control after three weeks
Excerpt: as §1, §3

## CCOC(=O)[C@@H](C)OC(=O)c1cc(Oc2c(Cl)cc(C(F)(F)F)cc2Cl)ccc1[N+](=O)[O-] [(1), 5-(2,6-Dichlor-4-trifluormethyl-phenoxy)-2-nitro-benzoesäure-(1-ethoxycarbonylethyl)-esters]
[1]; 0,6 kg/ha
  Wirkung (in %) Monocotyledoneae: 79,3%
[2]; 0,6 kg/ha
  Wirkung (in %) Mais: 10%
[3]; 0,6 kg/ha
  Wirkung (in %) Dicotyledoneae: 92,7%
[4]; 0,6 kg/ha
  Wirkung (in %) Soja: 10%
[5]; 0,6 kg/ha
  Wirkung (in %) Rüben: 100%
[6]
  herbizide Wirksamkeit: bessere herbizide Wirksamkeit
[7]
  herbizide Wirksamkeit: bessere herbizide Wirksamkeit
[8]; 0,6 kg/ha
  Wirkung (in %) Monocotyledoneae: 81,1%
[9]; 0,6 kg/ha
  Wirkung (in %) Mais: 80%
[10]; 0,6 kg/ha
  Wirkung (in %) Dicotyledoneae: 99,3%
[11]; 0,6 kg/ha
  Wirkung (in %) Soja: 100%
[12]; 0,6 kg/ha
  Wirkung (in %) Rüben: 100%

## CCOC(=O)[C@@H](C)OC(=O)c1cc(Oc2ccc(C(F)(F)F)cc2Cl)ccc1[N+](=O)[O-] [(2), 5-(2-Chlor-4-trifluormethyl-phenoxy)-2-nitro-benzoesäure-(1-ethoxycarbonyl-ethyl)-esters]
[1]; 0,75 kg/ha
  Wirkung (in %) Monocotyledoneae: 80,7%
[2]; 0,75 kg/ha
  Wirkung (in %) Mais: 0%
[3]; 0,75 kg/ha
  Wirkung (in %) Dicotyledoneae: 74,3%
[4]; 0,75 kg/ha
  Wirkung (in %) Soja: 0%
[5]; 0,75 kg/ha
  Wirkung (in %) Rüben: 99%
[6]
  herbizide Wirksamkeit: bessere herbizide Wirksamkeit
[7]
  herbizide Wirksamkeit: bessere herbizide Wirksamkeit
[8]; 0,75 kg/ha
  Wirkung (in %) Monocotyledoneae: 86,3%
[9]; 0,75 kg/ha
  Wirkung (in %) Mais: 99%
[10]; 0,75 kg/ha
  Wirkung (in %) Dicotyledoneae: 99,3%
[11]; 0,75 kg/ha
  Wirkung (in %) Soja: 99%
[12]; 0,75 kg/ha
  Wirkung (in %) Rüben: 100%
